Test results published in US6573274B1, “Sulfonamide compounds and uses thereof as medicines” (Fujisawa Pharmaceutical Co. Ltd., priority 1998, dated 2003).

How the values were obtained:
db/db mice = settings: female db/db mice; Dose 1 mg/kg, drug mixed with diet; difference between db/db control group and +/+ mice taken as 100%
Protocol: Blood Sugar Level Depressing Activity in db/db Mice
Female C57BL/KsJ-dbm db+/db+, C57BL/KsJ-dbm +m/+m (Jackson Laboratory) mice (5 weeks old) were purchased and subjected to the test after 2-3 weeks of acclimating period.
The test drug was mixed with a powder diet (CE-2, Clea Japan, Inc.) in a mortar. In the case of administration in 100 mg/kg, the mixing proportion was 0.1%, in the case of 30 mg/kg, the proportion was 0.03% and in the case of 10 mg/kg, the proportion was 0.01%. The diet was changed twice a week for each group. The amount of the diet given and the amount left were recorded and the diet intake was calculated by determining the difference.
The female db/db mice were grouped according to body weight, blood sugar level and triglyceride concentration in plasma. […] The blood sugar level, triglyceride concentration in plasma and insulin concentration in plasma were measured at day 0 and day 14, and blood sugar level and triglyceride concentration in blood were measured at day 7.
Blood sugar level was measured using 10-15 μl of plasma and in accordance with glucose oxidase method (glucose CII-Test Wako, Wako Pure Chemicals Co., Ltd.). The triglyceride concentration in plasma was measured using 10-15 μl of plasma and in accordance with GPO-p-chlorophenol method (triglyceride G-Test Wako) or GPO-DAOS method (triglyceride E-Test Wako). […]

[1] = Oral absorption (Cmax) in rats; type: in vivo; settings: sodium salt compared to the free compound
[2] = Oral absorption (Cmax) in dogs; type: in vivo; settings: sodium salt compared to the free compound

| SMILES | melting point [°C] | further results |
| --- | --- | --- |
| CCCOc1ccc(Cn2c(C)nc3c(C)cc(C(=O)NS(=O)(=O)c4ccc(C)cc4)nc32)c(Cl)c1 [Compound A, 3-(2-Chloro-4-(1-propoxy)benzyl)-2,7-dimethyl-5-[(4-methylbenzene)sulfonylcarbamoyl]-3H-imidazo[4,5-b]pyridine] | – | Blood sugar decrease (%) (db/db mice): 97% |
| CCCCCS(=O)(=O)NC(=O)c1ccc2nc(C)n(Cc3ccc(OCC4CCCCC4)cc3Cl)c2n1.[Na] [Example 85, 3-[2-chloro-4-(cyclohexylmethyloxy)benzyl]-2-methyl-5-(1-pentanesulfonylcarbamoyl)-3H-imidazo[4,5-b]pyridine sodium salt] | > 250 | Cmax, times greater than the free (non-salt) compound ([1]; rats, oral): 2 to 3 times; oral absorption as compared to the free (non-salt) compound ([1]; demonstrated by Cmax in rats and dogs): markedly improved; Cmax, times greater than the free (non-salt) compound [2]: about 16 times |
| CCC/C=C/S(=O)(=O)NC(=O)c1ccc2nc(C)n(Cc3ncc(NC(=O)OC(C)C)cc3Cl)c2n1 [Example 136, 3-[(5-(N-(isopropoxycarbonyl)amino)-3-chloropyridin-2-yl)methyl]-2-methyl-5-((E)-1-penten-1-ylsulfonylcarbamoyl)-3H-imidazo[4,5-b]pyridine] | 242 to 244 | – |
| CCCCCS(=O)(=O)NC(=O)c1ccc2nc(C)n(Cc3ccc(N(C)C(=O)OCC)cc3Cl)c2n1 [Example 145, 3-(4-(N-(ethoxycarbonyl)-N-methylamino)-2-chlorobenzyl)-2-methyl-5-(1-pentanesulfonylcarbamoyl)-3H-imidazo[4,5-b]pyridine] | 149 to 150 | – |
| CCCCCS(=O)(=O)NC(=O)c1ccc2nc(C)n(Cc3ccc(N(C)C(=O)OCc4ccccc4)cc3Cl)c2n1 [Example 146, 3-(4-(N-(benzyloxycarbonyl)-N-methylamino)-2-chlorobenzyl)-2-methyl-5-(1-pentanesulfonylcarbamoyl)-3H-imidazo[4,5-b]pyridine] | 120 to 121 | – |
